Where two headings read alike, the source gives them in different places.
Experiments:
RSV A2 strain = assay: In vitro CPE (CytoPathic Effect) inhibition effect evaluation test, RSV type A; type: cell-based; settings: inhibitory effect against RSV type A (RSV A2 strain), HEp-2 cells, CPE inhibition, read-out: EC50
In short: (§1)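 HEp-2 cells (2.4×10^5 cells/mL, 2% FBS E-MEM) were infected with RSV alongside 3-fold compound dilutions and incubated at 37 °C, 4 days for A2 and 5 days for B Wash/18537. Viable cells quantified by CellTiter-Glo 2.0 luminescence; EC50 by nonlinear regression as 50% CPE inhibition.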

[1] = test system: RSV B (Wash/18537 strain); assay: In vitro CPE (CytoPathic Effect) inhibition effect evaluation test, RSV type B; type: cell-based; settings: inhibitory effect against RSV type B, CPE inhibition, read-out: EC50
In short: as §1

[2] = human respiratory syncytial virus

SMILES	EC50 (RSV A2 strain; [2]) [nM]	EC50 [1, 2] [nM]	EC50 (RSV A2 strain) [nM]	EC50 [1] [nM]
O=C(NC1(C(=O)O)C2CC3CC(C2)CC1C3)c1cnc(N2CC3(CCCCC3)c3cc(O[C@@H]4CCN(c5ncc(F)cn5)C4)ccc32)nc1C(F)(F)F (some centres unmarked) [Compound I-525]	< 10	< 10		
CC(F)(F)c1nc(N2CC3(CCOCC3)c3cc(OC4CCN(CC(F)(F)F)CC4)ncc32)ncc1C(=O)NC1(C(=O)O)C2CC3CC(C2)CC1C3 (centres unmarked) [Compound I-526]	< 10	< 10		
CC(F)(F)c1nc(N2CC3(CCOCC3)c3cc(OC4CCC5(CC4)COC5)ccc32)ncc1C(=O)NC1(C(=O)O)C2CC3CC(C2)CC1C3 (centres unmarked) [Compound I-527]	< 10	< 10		
CC(F)(F)c1nc(N2CC3(CCOCC3)c3cc(OC4CCN(CC#N)CC4)ccc32)ncc1C(=O)NC1(C(=O)O)C2CC3CC(C2)CC1C3 (centres unmarked) [Compound I-528]	< 10	100 to 5000		
CC(F)(F)c1nc(N2CC3(CCOCC3)c3cc(OC4CCN(CCC(F)(F)F)CC4)ccc32)ncc1C(=O)NC1(C(=O)O)C2CC3CC(C2)CC1C3 (centres unmarked) [Compound I-529]	< 10	< 10		
CC(F)(F)c1nc(-c2cn(C3CC3)c3cc(O[C@H]4CC[C@H](N5CC(F)(F)C5)CC4)ccc23)ncc1C(=O)NC1(C(=O)O)C2CC3CC(C2)CC1C3 (some centres unmarked) [Compound I-530]	< 10	< 10		
O=C(NC1(C(=O)O)C2CC3CC(C2)CC1C3)c1cnc(-c2cn(C3CC4(CC4)C3)c3cc(O[C@H]4CC[C@H](N5CC(F)(F)C5)CC4)ccc23)nc1C(F)(F)F (some centres unmarked) [Compound I-531]	< 10	< 10		
CC(F)(F)c1nc(N2CC3(CCOCC3)c3cc(OC4CCN(CC5COC5)CC4)ccc32)ncc1C(=O)NC1(C(=O)O)C2CC3CC(C2)CC1C3 (centres unmarked) [Compound I-532]	< 10	10 to 100		
CC(F)(F)c1nc(N2CC3(CCOCC3)c3cc(OC4CCN(CC5CC(F)(F)C5)CC4)ccc32)ncc1C(=O)NC1(C(=O)O)C2CC3CC(C2)CC1C3 (centres unmarked) [Compound I-533]	< 10	< 10		
Cc1nnc(N2CCC(Oc3ccc4c(c3)C3(CCCCC3)CN4c3ncc(C(=O)NC4(C(=O)O)C5CC6CC(C5)CC4C6)c(C(F)(F)F)n3)CC2)o1 (centres unmarked) [Compound I-534]	< 10	< 10		
CC(F)(F)c1nc(N2CC3(CCCCC3)c3cc(OC4CCN(c5nnc(C(F)(F)F)s5)CC4)ccc32)ncc1C(=O)NC1(C(=O)O)C2CC3CC(C2)CC1C3 (centres unmarked) [Compound I-535]	< 10	10 to 100		
CC(F)(F)c1nc(N2CC3(CCCCC3)c3cc(OC4CCN(c5nc(C(F)(F)F)ns5)CC4)ccc32)ncc1C(=O)NC1(C(=O)O)C2CC3CC(C2)CC1C3 (centres unmarked) [Compound I-536]	< 10	10 to 100		
COc1cnc(N2CCC(Oc3ccc4c(c3)C3(CCCCC3)CN4c3ncc(C(=O)NC4(C(=O)O)C5CC6CC(C5)CC4C6)c(C(F)(F)F)n3)CC2)cn1 (centres unmarked) [Compound I-537]	< 10	10 to 100		
CC(F)(F)c1nc(N2CC3(CCOCC3)c3cc(OC4CCC(N5CCC(F)(F)C5)CC4)ccc32)ncc1C(=O)NC1(C(=O)O)C2CC3CC(C2)CC1C3 (centres unmarked) [Compound I-538]			< 10	< 10
CC(F)(F)c1nc(N2CC3(CCCCC3)c3cc(OC4CCC(N5CCC(F)(F)C5)CC4)ccc32)ncc1C(=O)NC1(C(=O)O)C2CC3CC(C2)CC1C3 (centres unmarked) [Compound I-539]			< 10	10 to 100
CC(F)(F)c1nc(N2CC3(CCCCC3)c3cc(OC4CCC(N5CCC(F)(F)C5)CC4)ccc32)ncc1C(=O)NC1(C(=O)O)C2CC3CC(C2)CC1C3 (centres unmarked) [Compound I-540]			< 10	10 to 100
CC(F)(F)c1nc(N2CC3(CCOCC3)c3cc(OC4CCC(N5CCC(F)(F)C5)CC4)ccc32)ncc1C(=O)NC1(C(=O)O)C2CC3CC(C2)CC1C3 (centres unmarked) [Compound I-541]			< 10	< 10
CC(F)(F)c1nc(N2CC3(CCOCC3)c3cc(OC4CN(c5ncc(F)cn5)C4)ccc32)ncc1C(=O)NC1(C(=O)O)C2CC3CC(C2)CC1C3 (centres unmarked) [Compound I-542]	< 10	< 10		
O=C(NC1(C(=O)O)C2CC3CC(C2)CC1C3)c1cnc(-c2cn(C3CC3)c3cc(O[C@H]4CC[C@@H](N5CC(F)(F)C5)CC4)ccc23)nc1C(F)(F)F (some centres unmarked) [Compound I-543]	< 10	< 10		
CC(F)(F)CN1CCC(Oc2ccc3c(-c4ncc(C(=O)NC5(C(=O)O)C6CC7CC(C6)CC5C7)c(C(F)(F)F)n4)cn(C4CC4)c3c2)CC1 (centres unmarked) [Compound I-544]	< 10	10 to 100		
O=C(NC1(C(=O)O)C2CC3CC(C2)CC1C3)c1cnc(-c2cn(C3CCC(F)(F)CC3)c3cc(O[C@H]4CC[C@H](N5CC(F)(F)C5)CC4)ccc23)nc1C(F)(F)F (some centres unmarked) [Compound I-545]	< 10	< 10		
CC(F)(F)c1nc(-c2cn(C3CCC(F)(F)CC3)c3cc(O[C@H]4CC[C@@H](N5CC(F)(F)C5)CC4)ccc23)ncc1C(=O)NC1(C(=O)O)C2CC3CC(C2)CC1C3 (some centres unmarked) [Compound I-546]	< 10	< 10		

SMILES	EC50 (RSV A2 strain; [2]) [nM]	EC50 [1, 2] [nM]	EC50 (RSV A2 strain) [nM]	EC50 [1] [nM]
CC(F)(F)c1nc(-c2cn(C3CCOCC3)c3cc(O[C@H]4CC[C@@H](N5CC(F)(F)C5)CC4)ccc23)ncc1C(=O)NC1(C(=O)O)C2CC3CC(C2)CC1C3 (some centres unmarked) [Compound I-547]	< 10	< 10		
CC(F)(F)CN1CCC(Oc2ccc3c(c2)C2(CCOCC2)CN3c2ncc(C(=O)NC3(C(=O)O)C4CC5CC(C4)CC3C5)c(C(C)(F)F)n2)CC1 (centres unmarked) [Compound I-548]	< 10	< 10		
CC(F)(F)c1nc(N2CC3(CCOCC3)c3cc(OC4CCC5(CC4)CN(CC(F)(F)F)C5)ccc32)ncc1C(=O)NC1(C(=O)O)C2CC3CC(C2)CC1C3 (centres unmarked) [Compound I-549]	< 10	< 10		
CC(F)(F)c1nc(N2CC3(CCCCC3)c3cc(OC4CCC5(CC4)CN(CC(F)(F)F)C5)ccc32)ncc1C(=O)NC1(C(=O)O)C2CC3CC(C2)CC1C3 (centres unmarked) [Compound I-550]	< 10	10 to 100		
CC(F)(F)c1nc(N2CC3(CCOCC3)c3cc(OC4CCN(C5CC(F)(F)C5)CC4)ccc32)ncc1C(=O)NC1(C(=O)O)C2CC3CC(C2)CC1C3 (centres unmarked) [Compound I-551]	< 10	< 10		
CC(F)(F)c1nc(N2CC3(CCOCC3)c3cc(O[C@H]4CC[C@H](NCC(F)(F)F)CC4)ccc32)ncc1C(=O)NC1(C(=O)O)C2CC3CC(C2)CC1C3 (some centres unmarked) [Compound I-552]	< 10	< 10		
CC(F)(F)c1nc(N2CC3(CCOCC3)c3cc(O[C@H]4CC[C@H](Nc5ncc(F)cn5)CC4)ccc32)ncc1C(=O)NC1(C(=O)O)C2CC3CC(C2)CC1C3 (some centres unmarked) [Compound I-553]	< 10	10 to 100		
CC(F)(F)c1nc(N2CC3(CCOCC3)c3cc(O[C@H]4CC[C@H](N5CC(F)(F)C5)CC4)ccc32)ncc1C(=O)N[C@]1(C(=O)O)[C@@H]2CC3C[C@H]1C[C@@](F)(C3)C2 [Compound I-554]	< 10	< 10		
CC(F)(F)c1nc(N2CC3(CCCCC3)c3cc(O[C@H]4CC[C@H](N5CC(F)(F)C5)CC4)ncc32)ncc1C(=O)NC1(C(=O)O)C2CC3CC(C2)CC1C3 (some centres unmarked) [Compound I-555]	< 10	10 to 100		
CC(F)(F)c1nc(N2CC3(CCCCC3)c3cc(O[C@H]4CC[C@H](N5CC(F)(F)C5)CC4)ncc32)ncc1C(=O)N[C@]1(C(=O)O)[C@@H]2CC3C[C@H]1C[C@@](F)(C3)C2 [Compound I-556]	< 10	10 to 100		
CC(F)(F)c1nc(N2CC3(CCCCC3)c3cc(OC4CCN(c5ncc(F)cn5)CC4)ncc32)ncc1C(=O)NC1(C(=O)O)C2CC3CC(C2)CC1C3 (centres unmarked) [Compound I-557]	< 10	< 10		
O=C(NC1(C(=O)O)C2CC3CC(C2)CC1C3)c1cnc(N2CC3(CCCCC3)c3cc(OC4CCN(c5ncc(F)cn5)CC4)ncc32)nc1C(F)(F)F (centres unmarked) [Compound I-558]	< 10	< 10		
CC(F)(F)c1nc(N2CC3(CCOCC3)c3cc(OC4CCN(CC(F)F)CC4)ccc32)ncc1C(=O)NC1(C(=O)O)C2CC3CC(C2)CC1C3 (centres unmarked) [Compound I-559]	< 10	< 10		
CC(F)(F)c1nc(N2CC3(CCOCC3)c3cc(O[C@@H]4CCN(c5ncc(F)cn5)C4)ccc32)ncc1C(=O)NC1(C(=O)O)C2CC3CC(C2)CC1C3 (some centres unmarked) [Compound I-560]	< 10	< 10		
CC(F)(F)c1nc(N2CC3(CCOCC3)c3cc(O[C@@H]4CCN(CC(F)(F)F)C4)ccc32)ncc1C(=O)NC1(C(=O)O)C2CC3CC(C2)CC1C3 (some centres unmarked) [Compound I-561]	< 10	< 10		
CC(F)(F)c1nc(N2CC3(CCOCC3)c3cc(O[C@H]4CC[C@H](c5ncc(F)cn5)CC4)ccc32)ncc1C(=O)NC1(C(=O)O)C2CC3CC(C2)CC1C3 (some centres unmarked) [Compound I-562]	< 10	< 10		
CC(F)(F)c1nc(N2CC3(CCCCC3)c3cc(O[C@H]4CC[C@H](n5ccnn5)CC4)ccc32)ncc1C(=O)NC1(C(=O)O)C2CC3CC(C2)CC1C3 (some centres unmarked) [Compound I-563]	< 10	< 10		
CC(F)(F)c1nc(N2CC3(CCOCC3)c3cc(OC4CCN(C5CSC5)CC4)ccc32)ncc1C(=O)NC1(C(=O)O)C2CC3CC(C2)CC1C3 (centres unmarked) [Compound I-564]	< 10	< 10		
CC(F)(F)c1nc(N2CC3(CCCC3)c3cc(OC4CCN(CC(F)(F)F)CC4)ccc32)ncc1C(=O)NC1(C(=O)O)C2CC3CC(C2)CC1C3 (centres unmarked) [Compound I-565]	< 10	< 10		
O=C(NC1(C(=O)O)C2CC3CC(C2)CC1C3)c1cnc(N2CC3(CCCC3)c3cc(O[C@@H]4CCN(CC(F)(F)F)C4)ccc32)nc1C(F)(F)F (some centres unmarked) [Compound I-566]	< 10	< 10		
COC[C@H](C)n1cc(-c2ncc(C(=O)NC3(C(=O)O)C4CC5CC(C4)CC3C5)c(C(C)(F)F)n2)c2ccc(O[C@H]3CC[C@H](N4CC(F)(F)C4)CC3)cc21 (some centres unmarked) [Compound I-567]	< 10	< 10		
